Results reported in the NIST ThermoML archive (doi:10.1021/je800636k).
Numbers after ± are expanded uncertainties.

Assay: xn = mol fraction of the nth substance listed
Details: 101 kPa, Liquid; for electrical conductivity: Qcond 2400 VWR international / cell constant, 1.05; for viscosity: Concentric cylinders viscometry; for mass density: Vibrating tube method

Compound: CCCCn1cc[n+](C)c1C.[N-]=[N+]=[N-] [1-butyl-2,3-dimethylimidazolium azide] + CCCCn1cc[n+](C)c1C.F[B-](F)(F)F
- electrical conductivity (303.15 K, x1 = 0.25): 0.0809 ± 0.0032 S/m
- electrical conductivity (303.15 K, x1 = 0.5): 0.0608 ± 0.0024 S/m
- electrical conductivity (303.15 K, x1 = 0.75): 0.0604 ± 0.0024 S/m
- electrical conductivity (303.15 K, x1 = 1): 0.0488 ± 0.0019 S/m
- electrical conductivity (308.15 K, x1 = 0.25): 0.114 ± 0.0046 S/m
- electrical conductivity (308.15 K, x1 = 0.5): 0.0887 ± 0.0036 S/m
- electrical conductivity (308.15 K, x1 = 0.75): 0.0881 ± 0.0035 S/m
- electrical conductivity (308.15 K, x1 = 1): 0.0756 ± 0.003 S/m
- viscosity (313.15 K, x1 = 0.25): 210.46 ± 5.5 mPa·s
- viscosity (313.15 K, x1 = 0.5): 292.06 ± 8.3 mPa·s
- viscosity (313.15 K, x1 = 0.75): 353.89 ± 11 mPa·s
- viscosity (313.15 K, x1 = 1): 338.19 ± 10 mPa·s
- electrical conductivity (313.15 K, x1 = 0.25): 0.156 ± 0.0062 S/m
- electrical conductivity (313.15 K, x1 = 0.5): 0.125 ± 0.005 S/m
- electrical conductivity (313.15 K, x1 = 0.75): 0.124 ± 0.005 S/m
- electrical conductivity (313.15 K, x1 = 1): 0.112 ± 0.0045 S/m
- mass density (313.15 K, x1 = 0.25): 1154.97 ± 2.6 kg/m3
- mass density (313.15 K, x1 = 0.5): 1129.46 ± 2.5 kg/m3
- mass density (313.15 K, x1 = 0.75): 1098.68 ± 2.3 kg/m3
- mass density (313.15 K, x1 = 1): 1070.46 ± 2.2 kg/m3
- electrical conductivity (318.15 K, x1 = 0.25): 0.208 ± 0.0083 S/m
- electrical conductivity (318.15 K, x1 = 0.5): 0.172 ± 0.0069 S/m
- electrical conductivity (318.15 K, x1 = 0.75): 0.171 ± 0.0068 S/m
- electrical conductivity (318.15 K, x1 = 1): 0.159 ± 0.0064 S/m
- viscosity (323.15 K, x1 = 0.25): 115.24 ± 2.4 mPa·s
- viscosity (323.15 K, x1 = 0.5): 156.81 ± 3.6 mPa·s
- viscosity (323.15 K, x1 = 0.75): 183.02 ± 4.4 mPa·s
- viscosity (323.15 K, x1 = 1): 176.04 ± 4.2 mPa·s
- electrical conductivity (323.15 K, x1 = 0.25): 0.271 ± 0.011 S/m
- electrical conductivity (323.15 K, x1 = 0.5): 0.23 ± 0.0092 S/m
- electrical conductivity (323.15 K, x1 = 0.75): 0.228 ± 0.0091 S/m
- electrical conductivity (323.15 K, x1 = 1): 0.219 ± 0.0088 S/m
- mass density (323.15 K, x1 = 0.25): 1148.74 ± 2.5 kg/m3
- mass density (323.15 K, x1 = 0.5): 1123.48 ± 2.4 kg/m3
- mass density (323.15 K, x1 = 0.75): 1092.32 ± 2.3 kg/m3
- mass density (323.15 K, x1 = 1): 1065.14 ± 2.2 kg/m3
- electrical conductivity (328.15 K, x1 = 0.25): 0.345 ± 0.014 S/m
- electrical conductivity (328.15 K, x1 = 0.5): 0.302 ± 0.012 S/m
- electrical conductivity (328.15 K, x1 = 0.75): 0.299 ± 0.012 S/m
- electrical conductivity (328.15 K, x1 = 1): 0.294 ± 0.012 S/m
- viscosity (333.15 K, x1 = 0.25): 68.72 ± 1.2 mPa·s
- viscosity (333.15 K, x1 = 0.5): 92.5 ± 1.8 mPa·s
- viscosity (333.15 K, x1 = 0.75): 105.08 ± 2.1 mPa·s
- viscosity (333.15 K, x1 = 1): 101.63 ± 2 mPa·s
- electrical conductivity (333.15 K, x1 = 0.25): 0.433 ± 0.017 S/m
- electrical conductivity (333.15 K, x1 = 0.5): 0.388 ± 0.015 S/m
- electrical conductivity (333.15 K, x1 = 0.75): 0.383 ± 0.015 S/m
- electrical conductivity (333.15 K, x1 = 1): 0.383 ± 0.015 S/m
- mass density (333.15 K, x1 = 0.25): 1142.5 ± 2.5 kg/m3
- mass density (333.15 K, x1 = 0.5): 1117.5 ± 2.4 kg/m3
- mass density (333.15 K, x1 = 0.75): 1085.96 ± 2.3 kg/m3
- mass density (333.15 K, x1 = 1): 1059.83 ± 2.2 kg/m3
- electrical conductivity (338.15 K, x1 = 0.25): 0.535 ± 0.021 S/m
- electrical conductivity (338.15 K, x1 = 0.5): 0.489 ± 0.02 S/m
- electrical conductivity (338.15 K, x1 = 0.75): 0.483 ± 0.019 S/m
- electrical conductivity (338.15 K, x1 = 1): 0.49 ± 0.02 S/m
- viscosity (343.15 K, x1 = 0.25): 43.88 ± 0.76 mPa·s
- viscosity (343.15 K, x1 = 0.5): 58.77 ± 1 mPa·s
- viscosity (343.15 K, x1 = 0.75): 65.45 ± 1.1 mPa·s
- viscosity (343.15 K, x1 = 1): 63.6 ± 1.1 mPa·s
- electrical conductivity (343.15 K, x1 = 0.25): 0.651 ± 0.026 S/m
- electrical conductivity (343.15 K, x1 = 0.5): 0.608 ± 0.024 S/m
- electrical conductivity (343.15 K, x1 = 0.75): 0.599 ± 0.024 S/m
- electrical conductivity (343.15 K, x1 = 1): 0.614 ± 0.025 S/m
- mass density (343.15 K, x1 = 0.25): 1136.27 ± 2.5 kg/m3
- mass density (343.15 K, x1 = 0.5): 1111.52 ± 2.4 kg/m3
- mass density (343.15 K, x1 = 0.75): 1079.6 ± 2.3 kg/m3
- mass density (343.15 K, x1 = 1): 1054.52 ± 2.2 kg/m3
- electrical conductivity (348.15 K, x1 = 0.25): 0.783 ± 0.031 S/m
- electrical conductivity (348.15 K, x1 = 0.5): 0.744 ± 0.03 S/m
- electrical conductivity (348.15 K, x1 = 0.75): 0.733 ± 0.029 S/m
- electrical conductivity (348.15 K, x1 = 1): 0.756 ± 0.03 S/m
- viscosity (353.15 K, x1 = 0.25): 29.62 ± 0.51 mPa·s
- viscosity (353.15 K, x1 = 0.5): 39.64 ± 0.68 mPa·s
- viscosity (353.15 K, x1 = 0.75): 43.5 ± 0.75 mPa·s
- viscosity (353.15 K, x1 = 1): 42.44 ± 0.73 mPa·s
- electrical conductivity (353.15 K, x1 = 0.25): 0.929 ± 0.037 S/m
- electrical conductivity (353.15 K, x1 = 0.5): 0.899 ± 0.036 S/m
- electrical conductivity (353.15 K, x1 = 0.75): 0.885 ± 0.035 S/m
- electrical conductivity (353.15 K, x1 = 1): 0.918 ± 0.037 S/m
- mass density (353.15 K, x1 = 0.25): 1130.03 ± 2.5 kg/m3
- mass density (353.15 K, x1 = 0.5): 1105.54 ± 2.4 kg/m3
- mass density (353.15 K, x1 = 0.75): 1073.24 ± 2.2 kg/m3
- mass density (353.15 K, x1 = 1): 1049.21 ± 2.1 kg/m3
- electrical conductivity (358.15 K, x1 = 0.25): 1.09 ± 0.044 S/m
- electrical conductivity (358.15 K, x1 = 0.5): 1.07 ± 0.043 S/m
- electrical conductivity (358.15 K, x1 = 0.75): 1.06 ± 0.042 S/m
- electrical conductivity (358.15 K, x1 = 1): 1.1 ± 0.044 S/m
- viscosity (363.15 K, x1 = 0.25): 20.94 ± 0.36 mPa·s
- viscosity (363.15 K, x1 = 0.5): 28.06 ± 0.48 mPa·s
- viscosity (363.15 K, x1 = 0.75): 30.46 ± 0.52 mPa·s
- viscosity (363.15 K, x1 = 1): 29.82 ± 0.51 mPa·s
- electrical conductivity (363.15 K, x1 = 0.25): 1.27 ± 0.051 S/m
- electrical conductivity (363.15 K, x1 = 0.5): 1.27 ± 0.051 S/m
- electrical conductivity (363.15 K, x1 = 0.75): 1.25 ± 0.05 S/m
- electrical conductivity (363.15 K, x1 = 1): 1.3 ± 0.052 S/m
- mass density (363.15 K, x1 = 0.25): 1123.8 ± 2.4 kg/m3
- mass density (363.15 K, x1 = 0.5): 1099.56 ± 2.3 kg/m3
- mass density (363.15 K, x1 = 0.75): 1066.87 ± 2.2 kg/m3
- mass density (363.15 K, x1 = 1): 1043.9 ± 2.1 kg/m3
- electrical conductivity (368.15 K, x1 = 0.25): 1.47 ± 0.059 S/m
- electrical conductivity (368.15 K, x1 = 0.5): 1.49 ± 0.059 S/m
- electrical conductivity (368.15 K, x1 = 0.75): 1.46 ± 0.058 S/m
- electrical conductivity (368.15 K, x1 = 1): 1.52 ± 0.061 S/m
- viscosity (373.15 K, x1 = 0.25): 15.38 ± 0.26 mPa·s
- viscosity (373.15 K, x1 = 0.5): 20.68 ± 0.36 mPa·s
- viscosity (373.15 K, x1 = 0.75): 22.27 ± 0.38 mPa·s
- viscosity (373.15 K, x1 = 1): 21.87 ± 0.38 mPa·s
- mass density (373.15 K, x1 = 0.25): 1117.56 ± 2.4 kg/m3
- mass density (373.15 K, x1 = 0.5): 1093.58 ± 2.3 kg/m3
- mass density (373.15 K, x1 = 0.75): 1060.51 ± 2.2 kg/m3
- mass density (373.15 K, x1 = 1): 1038.59 ± 2.1 kg/m3
